Experimental data from patent publication US20230233541A1, “SUBSTITUTED BENZAMIDES AS MODULATORS OF TREX1” (Constellation Pharmaceuticals, Inc., priority 2020, published 2023).

Experiments:
[1] = target: T1, human TREX2 (residues M44-A279) (Homo sapiens, UniProt Q9BQ50); assay: TREX2 Biochemical Assay (fluorescence assay, degradation of dsDNA substrate); conditions: 2.5 nM TREX2, 60 nM dsDNA substrate, 25 minutes at room temperature; read-out: hTREX2 EC50
T1 construct: human TREX2 (residues M44-A279, expressed in E. coli); His-Tev (His tag with TEV protease site) (N); made in house; host or cells: E. coli
T1 sequence (Q9BQ50 44-279 isoform Q9BQ50-1): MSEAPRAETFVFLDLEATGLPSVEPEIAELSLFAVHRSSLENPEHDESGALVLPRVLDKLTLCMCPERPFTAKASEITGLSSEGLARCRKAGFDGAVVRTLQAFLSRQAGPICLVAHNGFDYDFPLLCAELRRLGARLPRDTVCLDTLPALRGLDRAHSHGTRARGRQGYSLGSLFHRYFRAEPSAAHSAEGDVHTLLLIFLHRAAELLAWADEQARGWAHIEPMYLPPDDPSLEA
Procedure: Degradation of the dsDNA liberates free fluorophore to produce a fluorescent signal. Specifically, 7.5 μL of N-terminally His-Tev tagged human TREX2 (residues M44-A279, expressed in E. coli and purified in house) in reaction buffer (50 mM Tris (pH 7.4), 150 mM NaCl, 2 mM DTT, 0.1 mg/mL BSA, 0.01% (v/v) Tween-20 and 100 mM MgCl2) was added to a 384-well Black ProxiPlate Plus (Perkin Elmer) which already contained compound (150 nL) at varying concentrations as a 10-point dose-response in DMSO. To this was added 7.5 μL of dsDNA substrate (Strand A: 5′ TEX615/GCT AGG CAG 3′; Strand B: 5′ CTG CCT AGC/IAbRQSp (IDT)) in reaction buffer. Final concentrations were 2.5 nM TREX2, 60 nM dsDNA substrate in reaction buffer with 1.0% DMSO (v/v). After 25 minutes at room temperature, reactions were quenched by the addition of 5 μL of stop buffer (same as reaction buffer plus 200 mM EDTA). Final concentrations in the quenched reaction mixture were […] TREX2, 45 nM DNA and 50 mM EDTA in a volume of 20 μL. After a 5-minute incubation at room temperature, plates were read in a laser sourced Envision (Perkin-Elmer), measuring fluorescence at 615 nm following excitation w/570 nm light. IC50 values were calculated by comparing the measured fluorescence at 615 nm ratio relative to control wells pre-quenched w/stop buffer (100% inhibition) and no inhibitor (0% inhibition) controls as using non-linear least square four parameter fits and either Genedata or GraphPad Prism (GraphPad Software, Inc.).

full length human TREX1 = target: T2, full length human TREX1 (Homo sapiens, UniProt Q9NSU2); assay: TREX1 Biochemical Assay (fluorescence assay, degradation of dsDNA substrate); conditions: 150 pM TREX1, 60 nM dsDNA substrate, 25 minutes at room temperature; read-out: hTREX1 EC50
T2 construct: N-terminally His-Tev tagged full length human TREX1; His-Tev (His tag with TEV protease site) (N); made in house; host or cells: E. coli
T2 sequence (Q9NSU2 1-314): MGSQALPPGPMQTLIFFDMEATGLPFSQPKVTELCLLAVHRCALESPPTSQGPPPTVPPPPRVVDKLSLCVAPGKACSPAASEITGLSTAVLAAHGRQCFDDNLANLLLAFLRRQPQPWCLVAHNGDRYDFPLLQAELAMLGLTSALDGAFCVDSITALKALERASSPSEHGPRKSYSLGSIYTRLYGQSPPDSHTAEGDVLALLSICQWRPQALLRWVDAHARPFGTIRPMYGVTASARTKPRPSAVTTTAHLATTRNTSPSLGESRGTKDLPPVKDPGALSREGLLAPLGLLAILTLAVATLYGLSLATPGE
Procedure: Degradation of the dsDNA liberates free fluorophore to produce a fluorescent signal. Specifically, 7.5 μL of N-terminally His-Tev tagged full length human TREX1 (expressed in E. coli and purified in house) in reaction buffer (50 mM Tris (pH 7.4), 150 mM NaCl, 2 mM DTT, 0.1 mg/mL BSA, 0.01% (v/v) Tween-20 and 100 mM MgCl2) was added to a 384-well Black ProxiPlate Plus (Perkin Elmer) which already contained compound (150 nL) at varying concentrations as a 10-point dose-response in DMSO. To this was added 7.5 μL of dsDNA substrate (Strand A: 5′ TEX615/GCT AGG CAG 3′; Strand B: 5′ CTG CCT AGC/IAbRQSp (Integrated DNA Technologies)) in reaction buffer. Final concentrations were 150 pM TREX1, 60 nM dsDNA substrate in reaction buffer with 1.0% DMSO (v/v). After 25 minutes at room temperature, reactions were quenched by the addition of 5 μL of stop buffer (same as reaction buffer plus 200 mM EDTA). Final concentrations in the quenched reaction were 112.5 pM TREX1, 45 nM DNA and 50 mM EDTA in a volume of 20 μL. After a 5-minute incubation at room temperature, plates were read in a laser sourced Envision (Perkin-Elmer), measuring fluorescence at 615 nm following excitation w/570 nm light. IC50 values were calculated by comparing the measured fluorescence at 615 nm ratio relative to control wells pre-quenched w/stop buffer (100% inhibition) and no inhibitor (0% inhibition) controls as using non-linear least square four parameter fits and either Genedata or GraphPad Prism (GraphPad Software, Inc.).

## O=C(c1cccc(F)c1)N(Cc1cnc2ccccc2c1)Cc1ccc(Cl)cc1Cl [Compound 109]
[1]
  EC50: > 100 µM
Full length human TREX1
  EC50: > 10 µM

## NCCC[C@H](c1cccc(Cl)c1Cl)N(Cc1cccnc1)C(=O)c1cc(F)cc(F)c1 [Compound 249]
[1]
  EC50: 10 to 100 µM
Full length human TREX1
  EC50: 1 to 10 µM

## O=C(O)c1ccc(CN(Cc2nccc(Cl)c2Cl)C(=O)c2cc(F)cc(F)c2)cn1 [Compound 203]
[1]
  EC50: 1 to 10 µM
Full length human TREX1
  EC50: < 0.1 µM

## O=C(C1CCOCC1)N(Cc1cccnc1)Cc1ccc(Cl)cc1Cl [Compound 89]
[1]
  EC50: > 100 µM
Full length human TREX1
  EC50: > 10 µM

## CC(C)Oc1ccc(C(=O)N(Cc2cccnc2)Cc2cc(Cl)cc(Cl)c2)cc1 [Compound 54]
[1]
  EC50: > 100 µM
Full length human TREX1
  EC50: > 10 µM

## O=C(c1cccc(Cl)c1)N(Cc1cccnc1)Cc1ccc(Cl)cc1Cl [Compound 5]
[1]
  EC50: > 100 µM
Full length human TREX1
  EC50: 1 to 10 µM

## N#CCC[C@H](c1ccccc1Cl)N(Cc1cccnc1)C(=O)c1cc(F)cc(F)c1 [Compound 178]
[1]
  EC50: 10 to 100 µM
Full length human TREX1
  EC50: 1 to 10 µM

## COc1cc(C(=O)O)ncc1CN(Cc1cccc(Cl)c1Cl)C(=O)c1cc(F)cc(F)c1 [Compound 208]
[1]
  EC50: < 1 µM
Full length human TREX1
  EC50: < 0.1 µM

## O=C(c1cccc(F)c1)N(CCc1ccccc1)Cc1cccnc1 [Compound 131]
[1]
  EC50: > 100 µM
Full length human TREX1
  EC50: > 10 µM

## CC[C@@H](c1cccc(OC)c1Cl)N(Cc1cnc(C(=O)O)c(N)c1)C(=O)c1cc(F)cc(F)c1 [Compound 252]
[1]
  EC50: 10 to 100 µM
Full length human TREX1
  EC50: < 0.1 µM

## COc1nc(C(=O)O)ccc1CN(Cc1cccc(Cl)c1Cl)C(=O)c1cc(F)cc(F)c1 [Compound 210]
[1]
  EC50: 10 to 100 µM
Full length human TREX1
  EC50: 1 to 10 µM

## CC(C)(C)c1ccc(C(=O)N(Cc2cccnc2)Cc2cc(Cl)cc(Cl)c2)cc1 [Compound 61]
[1]
  EC50: > 100 µM
Full length human TREX1
  EC50: > 10 µM

## Cc1cccc(CN(Cc2cccnc2)C(=O)c2cccc(F)c2)c1Cl [Compound 135]
[1]
  EC50: 10 to 100 µM
Full length human TREX1
  EC50: 1 to 10 µM

## O=C(c1ccc(CO)cc1F)N(Cc1cccnc1)Cc1cc(Cl)cc(Cl)c1 [Compound 60]
[1]
  EC50: > 100 µM
Full length human TREX1
  EC50: > 10 µM

## COc1cc(C(=O)N(Cc2cccnc2)Cc2ccc(Cl)cc2Cl)cc(Br)c1O [Compound 41]
[1]
  EC50: > 100 µM
Full length human TREX1
  EC50: > 10 µM

## O=C(c1cccc(F)c1)N(Cc1cccnc1)Cc1ccc(Cl)cc1Cl [Compound 11]
[1]
  EC50: 10 to 100 µM
Full length human TREX1
  EC50: 1 to 10 µM

## Cc1ncc(C(=O)N(Cc2cccnc2)Cc2ccc(Cl)cc2Cl)cn1 [Compound 104]
[1]
  EC50: > 100 µM
Full length human TREX1
  EC50: > 10 µM

## O=C(c1cccc(F)c1)N(Cc1cccnc1)[C@H](CO)c1ccc(Cl)cc1Cl (single isomer, unassigned) [Compound 162]
[1]
  EC50: 10 to 100 µM
Full length human TREX1
  EC50: 0.1 to 1 µM

## O=C(c1cccc(F)c1)N(Cc1ccc(Cl)cc1)Cc1cccnc1 [Compound 138, N-[(4-chlorophenyl)methyl]-3-fluoro-N-[(pyridin-3-yl)methyl]benzamide]
[1]
  EC50: > 100 µM
Full length human TREX1
  EC50: > 10 µM

## COC(=O)CC[C@H](c1ccccc1Cl)N(Cc1cccnc1)C(=O)c1cc(F)cc(F)c1 [Compound 241]
[1]
  EC50: 10 to 100 µM
Full length human TREX1
  EC50: 1 to 10 µM

## Cn1cc(CN(Cc2ccc(Cl)cc2Cl)C(=O)c2cccc(F)c2)cn1 [Compound 112]
[1]
  EC50: > 100 µM
Full length human TREX1
  EC50: > 10 µM

## O=C(c1ccc(CO)cc1)N(Cc1cccnc1)Cc1cc(Cl)cc(Cl)c1 [Compound 64]
[1]
  EC50: > 100 µM
Full length human TREX1
  EC50: > 10 µM

## O=C(c1cccc(F)c1)N(Cc1ccccc1)Cc1ccc(Cl)cc1Cl [Compound 96]
[1]
  EC50: > 100 µM
Full length human TREX1
  EC50: > 10 µM

## O=C(O)c1cc(CO)c(CN(Cc2cccc(Cl)c2Cl)C(=O)c2cc(F)cc(F)c2)cn1 [Compound 206]
[1]
  EC50: 10 to 100 µM
Full length human TREX1
  EC50: < 0.1 µM

## CC[C@@H](c1cccc(Cl)c1Cl)N(Cc1cnc(C(=O)O)c(N)c1)C(=O)c1cc(F)cc(F)c1 [Compound 236]
[1]
  EC50: < 1 µM
Full length human TREX1
  EC50: < 0.1 µM

## O=C(c1ccc(Oc2ccccc2)cc1)N(Cc1cccnc1)Cc1cc(Cl)cc(Cl)c1 [Compound 71]
[1]
  EC50: > 100 µM
Full length human TREX1
  EC50: > 10 µM

## O=C(c1cc(Br)c(O)c(Br)c1)N(Cc1cccnc1)Cc1ccc(Cl)cc1Cl [Compound 40]
[1]
  EC50: > 100 µM
Full length human TREX1
  EC50: > 10 µM
